{"source": "ChEMBL document CHEMBL5518185", "about": "“Design, synthesis and antitumor activity of 4-arylamine substituted pyrimidine derivatives as noncovalent EGFR inhibitors overcoming C797S mutation” (Eur J Med Chem, 2024)", "key": {"[1]": {"test_system": "NCI-H1975", "experiment": "Antiproliferative activity against human NCI-H1975 cells assessed as inhibition of cell growth measured after 72 hrs by MTT assay", "type": "functional, cell-based", "settings": "NCI-H1975, 72 h"}, "[2]": {"biological_target": "Epidermal growth factor receptor (Homo sapiens, UniProt P00533, EX19DEL/T790M)", "experiment": "Inhibition of EGFR Del19/T790M (unknown origin) preincubated for 10 mins followed by substrate addition and measured after 50 mins in presence of ATP by HTRF assay"}, "[3]": {"biological_target": "Epidermal growth factor receptor (Homo sapiens, UniProt P00533, C797S/L858R/T790M)", "experiment": "Inhibition of EGFR L858R/T790M/C797S triple mutant (unknown origin) preincubated for 10 mins followed by substrate addition and measured after 50 mins in presence of ATP by HTRF assay"}, "[4]": {"biological_target": "Tyrosine-protein kinase ABL1 (Homo sapiens) (UniProt P00519)", "experiment": "Inhibition of Abl (unknown origin) by HTRF assay relative to control", "settings": "concentration not given here"}, "[5]": {"species_on_record": "Homo sapiens", "experiment": "Inhibition of Akt (unknown origin) by HTRF assay relative to control", "settings": "concentration not given here"}, "[6]": {"biological_target": "Tyrosine-protein kinase BTK (Homo sapiens) (UniProt Q06187)", "experiment": "Inhibition of BTK (unknown origin) by HTRF assay relative to control", "settings": "concentration not given here"}, "[7]": {"biological_target": "Mast/stem cell growth factor receptor Kit (Homo sapiens) (UniProt P10721)", "sequence (P10721 whole entry)": "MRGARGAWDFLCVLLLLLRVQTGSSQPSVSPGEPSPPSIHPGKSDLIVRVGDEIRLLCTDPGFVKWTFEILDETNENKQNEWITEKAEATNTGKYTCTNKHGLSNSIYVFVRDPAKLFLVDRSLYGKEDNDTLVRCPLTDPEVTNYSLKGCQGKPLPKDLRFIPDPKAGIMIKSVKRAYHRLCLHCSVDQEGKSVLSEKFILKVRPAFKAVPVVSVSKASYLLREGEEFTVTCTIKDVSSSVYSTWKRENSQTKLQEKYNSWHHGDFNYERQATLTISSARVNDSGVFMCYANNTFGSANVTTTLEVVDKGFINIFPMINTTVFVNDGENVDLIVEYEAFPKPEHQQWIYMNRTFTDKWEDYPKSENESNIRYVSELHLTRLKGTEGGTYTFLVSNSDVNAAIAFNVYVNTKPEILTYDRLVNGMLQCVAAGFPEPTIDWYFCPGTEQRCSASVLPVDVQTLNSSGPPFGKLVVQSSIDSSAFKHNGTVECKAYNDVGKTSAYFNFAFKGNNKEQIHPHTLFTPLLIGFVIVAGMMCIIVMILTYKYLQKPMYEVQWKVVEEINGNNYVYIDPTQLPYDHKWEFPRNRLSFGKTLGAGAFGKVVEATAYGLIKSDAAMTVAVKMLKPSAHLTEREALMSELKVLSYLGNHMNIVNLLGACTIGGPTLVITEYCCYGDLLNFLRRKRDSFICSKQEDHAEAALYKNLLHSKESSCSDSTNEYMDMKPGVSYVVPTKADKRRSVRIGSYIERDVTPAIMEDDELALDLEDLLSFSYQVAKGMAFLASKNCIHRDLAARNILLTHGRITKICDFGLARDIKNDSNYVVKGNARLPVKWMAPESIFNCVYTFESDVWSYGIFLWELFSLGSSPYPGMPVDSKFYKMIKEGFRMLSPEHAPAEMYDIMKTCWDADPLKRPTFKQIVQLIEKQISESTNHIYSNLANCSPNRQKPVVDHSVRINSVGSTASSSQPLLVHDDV", "experiment": "Inhibition of c-kit (unknown origin) by HTRF assay relative to control", "settings": "concentration not given here"}, "[8]": {"species_on_record": "Homo sapiens", "experiment": "Inhibition of FGFR (unknown origin) by HTRF assay relative to control", "settings": "concentration not given here"}, "[9]": {"biological_target": "Proto-oncogene tyrosine-protein kinase ROS (Homo sapiens) (UniProt P08922)", "sequence (P08922 whole entry)": "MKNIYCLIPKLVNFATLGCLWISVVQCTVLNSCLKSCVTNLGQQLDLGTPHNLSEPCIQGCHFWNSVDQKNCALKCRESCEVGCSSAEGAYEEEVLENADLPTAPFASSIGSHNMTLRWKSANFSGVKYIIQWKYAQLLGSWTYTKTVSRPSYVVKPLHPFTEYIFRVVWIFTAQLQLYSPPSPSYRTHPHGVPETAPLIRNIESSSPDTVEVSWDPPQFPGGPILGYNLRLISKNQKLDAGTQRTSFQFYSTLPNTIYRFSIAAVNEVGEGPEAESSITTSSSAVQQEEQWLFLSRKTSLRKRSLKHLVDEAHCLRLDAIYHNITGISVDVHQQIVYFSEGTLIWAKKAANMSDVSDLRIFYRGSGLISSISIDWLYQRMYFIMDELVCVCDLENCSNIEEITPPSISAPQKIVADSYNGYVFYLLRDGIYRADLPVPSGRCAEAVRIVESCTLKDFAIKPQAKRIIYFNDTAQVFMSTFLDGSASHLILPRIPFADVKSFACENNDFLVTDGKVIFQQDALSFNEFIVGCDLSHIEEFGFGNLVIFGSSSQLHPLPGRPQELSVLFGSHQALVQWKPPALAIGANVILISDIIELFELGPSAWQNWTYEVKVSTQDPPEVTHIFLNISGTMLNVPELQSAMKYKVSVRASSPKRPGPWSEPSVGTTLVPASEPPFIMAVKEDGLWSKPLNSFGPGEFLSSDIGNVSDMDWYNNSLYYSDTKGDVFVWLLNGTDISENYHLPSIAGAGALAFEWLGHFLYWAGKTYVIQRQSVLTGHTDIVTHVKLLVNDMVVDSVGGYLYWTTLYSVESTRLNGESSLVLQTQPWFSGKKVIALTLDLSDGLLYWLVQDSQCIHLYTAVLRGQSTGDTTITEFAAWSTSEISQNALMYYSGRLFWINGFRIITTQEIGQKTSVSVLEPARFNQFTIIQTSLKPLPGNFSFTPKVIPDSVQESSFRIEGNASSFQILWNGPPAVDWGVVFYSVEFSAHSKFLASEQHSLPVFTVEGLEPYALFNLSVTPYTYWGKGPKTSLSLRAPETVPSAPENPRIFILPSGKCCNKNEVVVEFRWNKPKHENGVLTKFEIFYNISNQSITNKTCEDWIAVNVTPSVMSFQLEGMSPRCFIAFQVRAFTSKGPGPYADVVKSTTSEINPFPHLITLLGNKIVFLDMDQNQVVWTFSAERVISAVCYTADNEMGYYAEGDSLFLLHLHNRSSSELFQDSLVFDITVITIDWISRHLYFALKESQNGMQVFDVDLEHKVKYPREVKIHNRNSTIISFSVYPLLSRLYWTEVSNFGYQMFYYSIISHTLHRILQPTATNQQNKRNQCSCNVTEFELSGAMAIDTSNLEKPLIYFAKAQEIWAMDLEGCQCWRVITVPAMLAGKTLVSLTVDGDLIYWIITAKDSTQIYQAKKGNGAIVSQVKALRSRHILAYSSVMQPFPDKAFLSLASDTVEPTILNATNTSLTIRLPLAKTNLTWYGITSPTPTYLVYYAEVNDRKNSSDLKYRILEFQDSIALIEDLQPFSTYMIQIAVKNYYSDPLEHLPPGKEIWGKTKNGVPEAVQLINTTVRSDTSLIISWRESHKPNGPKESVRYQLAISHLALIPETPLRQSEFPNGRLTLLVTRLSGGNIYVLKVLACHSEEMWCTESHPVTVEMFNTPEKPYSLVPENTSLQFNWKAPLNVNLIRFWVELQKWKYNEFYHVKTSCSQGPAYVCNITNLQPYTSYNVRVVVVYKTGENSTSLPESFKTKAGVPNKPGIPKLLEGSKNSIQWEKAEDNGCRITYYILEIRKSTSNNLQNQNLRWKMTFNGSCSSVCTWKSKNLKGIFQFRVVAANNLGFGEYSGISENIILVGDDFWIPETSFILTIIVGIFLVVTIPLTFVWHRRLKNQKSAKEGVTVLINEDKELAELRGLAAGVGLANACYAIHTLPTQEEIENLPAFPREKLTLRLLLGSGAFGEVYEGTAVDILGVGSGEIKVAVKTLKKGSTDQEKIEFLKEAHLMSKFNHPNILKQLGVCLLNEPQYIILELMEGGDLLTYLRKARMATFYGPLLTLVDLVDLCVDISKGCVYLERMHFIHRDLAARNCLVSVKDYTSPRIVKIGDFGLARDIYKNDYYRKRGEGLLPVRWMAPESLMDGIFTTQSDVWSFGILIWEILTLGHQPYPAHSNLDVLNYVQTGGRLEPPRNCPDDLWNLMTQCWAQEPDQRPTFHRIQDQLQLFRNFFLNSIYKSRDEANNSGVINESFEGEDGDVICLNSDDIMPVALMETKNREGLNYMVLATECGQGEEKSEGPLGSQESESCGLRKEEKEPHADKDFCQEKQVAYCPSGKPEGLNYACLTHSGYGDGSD", "experiment": "Inhibition of ROS (unknown origin) by HTRF assay relative to control", "settings": "concentration not given here"}, "[10]": {"biological_target": "Proto-oncogene tyrosine-protein kinase Src (Homo sapiens) (UniProt P12931)", "sequence (P12931 2-536 limits assumed)": "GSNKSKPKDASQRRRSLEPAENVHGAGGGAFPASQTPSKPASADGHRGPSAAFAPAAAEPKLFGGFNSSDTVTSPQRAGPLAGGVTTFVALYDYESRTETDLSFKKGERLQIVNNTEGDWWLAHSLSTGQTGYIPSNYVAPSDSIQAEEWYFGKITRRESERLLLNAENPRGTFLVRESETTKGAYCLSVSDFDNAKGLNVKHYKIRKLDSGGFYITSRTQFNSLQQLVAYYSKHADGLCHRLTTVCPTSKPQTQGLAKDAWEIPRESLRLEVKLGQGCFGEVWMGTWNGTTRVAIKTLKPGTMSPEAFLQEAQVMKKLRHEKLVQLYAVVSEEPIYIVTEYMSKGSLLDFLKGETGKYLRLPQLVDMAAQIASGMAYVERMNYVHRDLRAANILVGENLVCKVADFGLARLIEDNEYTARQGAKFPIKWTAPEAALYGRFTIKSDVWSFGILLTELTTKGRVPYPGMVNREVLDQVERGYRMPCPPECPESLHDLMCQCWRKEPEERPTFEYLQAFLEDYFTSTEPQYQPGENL", "experiment": "Inhibition of Src (unknown origin) by HTRF assay relative to control", "settings": "concentration not given here"}, "[11]": {"experiment": "Cytotoxicity against human 2BS cells assessed as inhibition of cell viability measured after 72 hrs by MTT assay", "type": "toxicity, cell-based"}, "[12]": {"experiment": "Cytotoxicity against human L02 cells assessed as inhibition of cell viability measured after 72 hrs by MTT assay", "type": "toxicity, cell-based"}, "[13]": {"test_system": "HCC827", "experiment": "Induction of cell cycle arrest in human HCC827 cells assessed as accumulation of cells at G0/G1 phase at 100 nM measured after 24 hrs by PI staining based flow cytometry analysis (reference value: 54.36%)", "type": "functional"}, "[14]": {"test_system": "HCC827", "experiment": "Induction of cell cycle arrest in human HCC827 cells assessed as accumulation of cells at S phase at 30 nM measured after 24 hrs by PI staining based flow cytometry analysis (reference value: 28.81%)", "type": "functional"}, "[15]": {"test_system": "HCC827", "experiment": "Induction of cell cycle arrest in human HCC827 cells assessed as accumulation of cells at G2/M phase at 10 nM measured after 24 hrs by PI staining based flow cytometry analysis (reference value: 16.83%)", "type": "functional"}, "[16]": {"test_system": "HCC827", "experiment": "Induction of apoptosis in human HCC827 cells assessed as viable cells at 30 nM measured after 24 hrs by annexin V/PI staining based flu cytometry analysis (reference value: 84.0%)", "type": "functional", "settings": "read-out: Activity"}, "[17]": {"test_system": "HCC827", "experiment": "Induction of apoptosis in human HCC827 cells assessed as early apoptotic cells at 30 nM measured after 24 hrs by annexin V/PI staining based flu cytometry analysis (reference value: 3.2%)", "type": "functional"}, "[18]": {"test_system": "HCC827", "experiment": "Induction of apoptosis in human HCC827 cells assessed as late apoptotic cells at 10 nM measured after 24 hrs by annexin V/PI staining based flu cytometry analysis (reference value: 5.50%)", "type": "functional"}, "[19]": {"test_system": "HCC827", "experiment": "Induction of apoptosis in human HCC827 cells assessed as late apoptotic cells at 30 nM measured after 24 hrs by annexin V/PI staining based flu cytometry analysis (reference value: 5.50%)", "type": "functional"}, "[20]": {"test_system": "HCC827", "experiment": "Induction of apoptosis in human HCC827 cells assessed as necrotic cells at 10 nM measured after 24 hrs by annexin V/PI staining based flu cytometry analysis (reference value: 7.34%)", "type": "functional"}, "[21]": {"test_system": "HCC827", "experiment": "Induction of apoptosis in human HCC827 cells assessed as necrotic cells at 100 nM measured after 24 hrs by annexin V/PI staining based flu cytometry analysis (reference value: 7.34%)", "type": "functional"}, "[22]": {"biological_target": "Mitogen-activated protein kinase; ERK1/ERK2 (Homo sapiens) (UniProt P27361+P28482)", "experiment": "Inhibition of ERK1/2 phosphorylation (unknown origin) at 100 nM by Western blotting analysis", "type": "protein assay"}, "[23]": {"test_system": "HCC827", "experiment": "Induction of apoptosis in human HCC827 cells assessed as activation of cleaved-PARP level measured after 48 hrs by Western blot analysis", "type": "functional, cell-based", "settings": "dose 10-400 nM"}, "[24]": {"test_system": "HCC827", "experiment": "Induction of apoptosis in human HCC827 cells assessed as activation of cleaved-caspase-3 level measured after 48 hrs by Western blot analysis", "type": "functional, cell-based", "settings": "dose 10-400 nM"}, "[25]": {"test_system": "HCC827", "experiment": "Antitumor activity against human HCC827 cells xenografted in BALB/c nude mouse assessed as tumor growth inhibition at 10 mg/kg/day, po measured every three days for 21 days by vernier caliper based analysis relative to control", "type": "functional", "settings": "HCC827, 504 h, time 21 day, read-out: TGI"}, "[26]": {"experiment": "Toxicity in BALB/c nude mouse assessed as drug tolerability at 10 to 50 mg/kg/day, po measured every three days for 21 days", "type": "organism-based", "settings": "in vivo, 504 h, dose 10-50 mg/kg/day, time 21 day"}, "[27]": {"test_system": "Epidermal growth factor receptor (Homo sapiens), P00533 [UNDEFINED MUTATION]", "sequence (P00533 whole entry, looked up, change not shown)": "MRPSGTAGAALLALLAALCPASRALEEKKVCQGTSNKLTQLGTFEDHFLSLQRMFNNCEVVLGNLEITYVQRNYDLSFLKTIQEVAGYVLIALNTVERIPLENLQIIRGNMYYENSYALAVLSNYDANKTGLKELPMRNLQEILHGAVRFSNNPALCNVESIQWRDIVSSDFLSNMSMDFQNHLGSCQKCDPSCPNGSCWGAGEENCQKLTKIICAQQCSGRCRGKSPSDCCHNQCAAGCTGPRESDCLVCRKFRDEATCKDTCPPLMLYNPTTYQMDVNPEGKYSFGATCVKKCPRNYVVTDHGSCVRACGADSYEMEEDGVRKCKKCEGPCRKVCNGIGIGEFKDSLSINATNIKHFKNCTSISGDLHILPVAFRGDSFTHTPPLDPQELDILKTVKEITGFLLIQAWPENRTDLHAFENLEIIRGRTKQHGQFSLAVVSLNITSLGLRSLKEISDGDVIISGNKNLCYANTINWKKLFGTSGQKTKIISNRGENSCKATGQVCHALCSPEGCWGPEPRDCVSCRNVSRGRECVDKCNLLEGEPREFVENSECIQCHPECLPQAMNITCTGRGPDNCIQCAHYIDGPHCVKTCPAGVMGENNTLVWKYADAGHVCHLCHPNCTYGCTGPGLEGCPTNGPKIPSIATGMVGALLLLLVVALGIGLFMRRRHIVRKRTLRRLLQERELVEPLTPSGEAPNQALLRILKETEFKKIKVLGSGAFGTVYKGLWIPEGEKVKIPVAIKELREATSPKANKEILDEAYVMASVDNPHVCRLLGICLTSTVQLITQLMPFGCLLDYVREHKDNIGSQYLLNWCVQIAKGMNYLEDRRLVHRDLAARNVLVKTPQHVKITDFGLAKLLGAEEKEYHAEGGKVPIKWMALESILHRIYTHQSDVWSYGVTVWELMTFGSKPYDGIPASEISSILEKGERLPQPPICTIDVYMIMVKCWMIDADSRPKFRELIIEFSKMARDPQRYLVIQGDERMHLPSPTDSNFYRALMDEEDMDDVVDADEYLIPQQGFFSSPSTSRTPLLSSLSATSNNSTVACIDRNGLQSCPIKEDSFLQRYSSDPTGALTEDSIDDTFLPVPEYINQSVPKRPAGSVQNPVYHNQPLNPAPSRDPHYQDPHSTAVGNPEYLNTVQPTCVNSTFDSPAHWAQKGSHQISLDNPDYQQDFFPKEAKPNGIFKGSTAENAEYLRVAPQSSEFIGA", "settings": "dose 100.0 nM"}, "[28]": {"test_system": "Epidermal growth factor receptor (Homo sapiens), P00533 [UNDEFINED MUTATION]", "settings": "dose 30.0 nM"}, "[29]": {"biological_target": "Epidermal growth factor receptor (Homo sapiens, UniProt P00533)", "settings": "dose 100.0 nM", "description": "Inhibition of EGFR phosphorylation (unknown origin) at 100 nM by Western blotting analysis"}, "[30]": {"experiment": "Inhibition of ERK (unknown origin) by HTRF assay relative to control", "settings": "Homo sapiens; concentration not given here"}}, "note": "Activity calls are given as the source filed them. No cut-off for these calls is given here."}
{"smiles": "O=C(NO)c1sccc1Nc1nc(Nc2ccc(N3CCOCC3)cc2)ncc1Cl", "values": [{"measurement": "IC50", "setting": "[1]", "result": 168, "unit": "nM"}, {"measurement": "IC50", "setting": "[2]", "result": 214, "unit": "nM"}, {"measurement": "IC50", "setting": "[3]", "result": 11.8, "unit": "nM"}, {"measurement": "inhibition", "setting": "[4]", "result": "< 70", "unit": "%"}, {"measurement": "inhibition", "setting": "[5]", "result": "< 70", "unit": "%"}, {"measurement": "inhibition", "setting": "[6]", "result": "< 70", "unit": "%"}, {"measurement": "inhibition", "setting": "[7]", "result": "< 70", "unit": "%"}, {"measurement": "inhibition", "setting": "[8]", "result": "< 70", "unit": "%"}, {"measurement": "inhibition", "setting": "[9]", "result": "< 70", "unit": "%"}, {"measurement": "inhibition", "setting": "[10]", "result": "< 70", "unit": "%"}, {"measurement": "IC50 at 72 h", "setting": "[11]", "result": 24600, "unit": "nM"}, {"measurement": "IC50 at 72 h", "setting": "[12]", "result": 2450, "unit": "nM"}, {"measurement": "Activity", "setting": "[13]", "result": 44.23, "unit": "%"}, {"measurement": "Activity", "setting": "[14]", "result": 12.31, "unit": "%"}, {"measurement": "Activity", "setting": "[15]", "result": 17.56, "unit": "%"}, {"measurement": "viability at 0.03 µM", "setting": "[16]", "result": 70.7, "unit": "%"}, {"measurement": "Activity", "setting": "[17]", "result": 11.4, "unit": "%"}, {"measurement": "Activity", "setting": "[18]", "result": 6.53, "unit": "%"}, {"measurement": "Activity", "setting": "[19]", "result": 10.4, "unit": "%"}, {"measurement": "Activity", "setting": "[20]", "result": 6.5, "unit": "%"}, {"measurement": "Activity", "setting": "[21]", "result": 6.32, "unit": "%"}, {"measurement": "inhibition", "setting": "[22]", "result": "Active"}, {"measurement": "Activity", "setting": "[23]", "result": "Dose-Dependent Effect"}, {"measurement": "Activity", "setting": "[24]", "result": "Dose-Dependent Effect"}, {"measurement": "inhibition in vivo at 10 mg/kg/day", "setting": "[25]", "result": 50.6, "unit": "%"}, {"measurement": "Activity", "setting": "[26]", "result": "Non-Toxic"}, {"measurement": "inhibition", "setting": "[27]", "result": 88.6, "unit": "%"}, {"measurement": "inhibition", "setting": "[28]", "result": 61.9, "unit": "%"}, {"measurement": "inhibition", "setting": "[29]", "result": "Active"}, {"measurement": "inhibition", "setting": "[30]", "result": "< 70", "unit": "%"}]}
